Each block holds one compound with its values, some of them ahead of it.
Target: T1, cPLA2 (Homo sapiens, UniProt P47712)
T1 sequence (P47712 1-749): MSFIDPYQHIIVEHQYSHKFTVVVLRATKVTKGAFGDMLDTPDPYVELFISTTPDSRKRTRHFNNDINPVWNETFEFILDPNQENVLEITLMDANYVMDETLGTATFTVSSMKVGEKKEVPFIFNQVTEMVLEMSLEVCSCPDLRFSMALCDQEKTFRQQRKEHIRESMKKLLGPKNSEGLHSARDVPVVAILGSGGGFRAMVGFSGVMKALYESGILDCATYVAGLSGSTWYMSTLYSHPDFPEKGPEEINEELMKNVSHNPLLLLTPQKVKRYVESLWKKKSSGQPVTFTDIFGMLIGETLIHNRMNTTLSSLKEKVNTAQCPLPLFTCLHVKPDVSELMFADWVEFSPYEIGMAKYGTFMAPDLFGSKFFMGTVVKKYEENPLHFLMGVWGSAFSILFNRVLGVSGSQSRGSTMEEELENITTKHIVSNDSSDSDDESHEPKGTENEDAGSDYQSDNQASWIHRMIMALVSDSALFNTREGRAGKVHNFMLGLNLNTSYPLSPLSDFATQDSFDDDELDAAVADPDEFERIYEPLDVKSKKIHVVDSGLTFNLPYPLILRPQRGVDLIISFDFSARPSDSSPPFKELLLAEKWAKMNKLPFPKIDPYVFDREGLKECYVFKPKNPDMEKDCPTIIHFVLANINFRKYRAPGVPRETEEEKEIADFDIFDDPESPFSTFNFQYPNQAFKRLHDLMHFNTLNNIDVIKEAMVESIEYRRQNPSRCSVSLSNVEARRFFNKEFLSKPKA
Test: Coumarin Assay (cPLA2 inhibition)
Type: biochemical
Conditions: for inhibition at 2.5 µM: CONCENTRATION 2.5 micromolar; for inhibition at 6 µM: CONCENTRATION 6 micromolar; for inhibition at 4.4 µM: CONCENTRATION 4.4 micromolar; for inhibition at 12.5 µM: CONCENTRATION 12.5 micromolar
Method: Table I reports data for the compounds described in the examples above in cPLA2 inhibition assays (described below). In the data columns of Tables I and II, assay results are reported as a percent inhibition at the concentration specified.
7-hydroxycoumarinyl 6-heptenoate was used as a monomeric substrate for cPLA2 as reported previously (Huang, Z. et al., 1994, Nalytical Biochemistry 222, 110-115). Inhibitors were mixed with 200 μL assay buffer (80 mM Heped, pH 7.5, 1 mM EDTA) containing 60 μM 7-hydroxycoumarinyl 6-heptenoate. The reaction was initiated by adding 4 μg cPLA2 in 50 μL assay buffer. Hydrolysis of the 7-hydroxycounarimyl 6-heptenoate ester was monitored in a fluorometer by exciting at 360 nm and monitoring emission at 460 nm. Enzyme activity is proportional to the increase in emission at 460 nm per minute. In the presence of a cPLA2 inhibitor, the rate of increase is less. The percent inhibition for corresponding concentrations of compounds herein in this Coumarin assay are provided below in Table I.

inhibition at 13 µM (CONCENTRATION 13 micromolar, read-out: PERCENT INHIBITION @): 50%
inhibition at 17 µM (CONCENTRATION 17 micromolar, read-out: PERCENT INHIBITION @): 50%
SMILES: COc1cc(C(=O)NS(=O)(=O)c2ccccc2C)ccc1Cc1cn(C2CCCC2)c2ccc(NC(=O)OC3CCCC3)cc12 [Example 25, Cyclopentyl N-{1-cyclopentyl-3-[2-methoxy-4-({[(2-methylphenyl)sulfonyl]amino}carbonyl)benzyl]-1H-indol-5-yl}carbamate]

inhibition at 2.5 µM (read-out: PERCENT INHIBITION @): 50%
inhibition at 3.4 µM (CONCENTRATION 3.4 micromolar, read-out: PERCENT INHIBITION @): 50%
inhibition at 6 µM (read-out: PERCENT INHIBITION @): 87%
SMILES: COc1cc(C(=O)NS(=O)(=O)c2nn(C)c(=NC(C)=O)s2)ccc1Cc1cn(C(c2ccccc2)c2ccccc2)c2ccc(NC(=O)OC3CCCC3)cc12 [Example 29, cyclopentyl N-(3-{4-[({[5-(acetylimino)-4-methyl-4,5-dihydro1,3,4-thiadiazol-2-yl]sulfonyl}amino)carbonyl]-2-methoxybenzyl}-1-benzhydryl-1H-indol-5-yl)carbamate]

inhibition at 11 µM (CONCENTRATION 11 micromolar, read-out: PERCENT INHIBITION @): 50%
inhibition at 18 µM (CONCENTRATION 18 micromolar, read-out: PERCENT INHIBITION @): 50%
SMILES: COc1cc(C(=O)NS(=O)(=O)Cc2ccccc2)ccc1Cc1cn(C(c2ccccc2)c2ccccc2)c2ccc(NC(=O)OC3CCCC3)cc12 [Example 31, cyclopentyl N-[1-benzhydryl-3-(4-{[(benzylsulfonyl)amino]carbonyl}-2-methoxybenzyl)-1H-indol-5-yl]carbamate]

inhibition at 4 µM (CONCENTRATION 4 micromolar, read-out: PERCENT INHIBITION @): 50%
inhibition at 4.4 µM (read-out: PERCENT INHIBITION @): 50%
SMILES: COc1cc(C(=O)NS(=O)(=O)c2sc(C)nc2C)ccc1Cc1cn(C(c2ccccc2)c2ccccc2)c2ccc(NC(=O)OC3CCCC3)cc12 [Example 32, cyclopentyl N-{1-benzhydryl-3-[4-({[(2,4-dimethyl-1,3-thiazol-5-yl)sulfonyl]amino}carbonyl)-2-methoxybenzyl]-1H-indol-5-yl}carbamate]

inhibition at 2 µM (CONCENTRATION 2 micromolar, read-out: PERCENT INHIBITION @): 50%
inhibition at 2.5 µM (read-out: PERCENT INHIBITION @): 57%
SMILES: COc1cc(C(=O)NS(=O)(=O)c2nnc(NC(C)=O)s2)ccc1Cc1cn(C(c2ccccc2)c2ccccc2)c2ccc(NC(=O)OC3CCCC3)cc12 [Example 34, cyclopentyl N-(3-{4-[({[5-(acetylamino)-1,3,4-thiadiazol-2-yl]sulfonyl}amino)carbonyl]-2-methoxybenzyl}-1-benzhydryl-1H-indol-5-yl)carbamate]

inhibition at 10 µM (CONCENTRATION 10 micromolar, read-out: PERCENT INHIBITION @): 23%
inhibition at 20 µM (CONCENTRATION 20 micromolar, read-out: PERCENT INHIBITION @): 42%
inhibition at 41 µM (CONCENTRATION 41 micromolar, read-out: PERCENT INHIBITION @): 50%
SMILES: COc1cc(C(=O)NS(=O)(=O)c2ccc(N3N=C(C)CC3=O)cc2)ccc1Cc1cn(C(c2ccccc2)c2ccccc2)c2ccc(NC(=O)OC3CCCC3)cc12 [Example 35, cyclopentyl N-(1-benzhydryl-3-{2-methoxy-4[({[4-(3-methyl-5-oxo-4,5-dihydro-1H-pyrazol-1-yl)phenyl]sulfonyl}amino)carbonyl]benzyl}-1H-indol-5-yl)carbamate]

inhibition at 0.22 µM (CONCENTRATION 0.22 micromolar, read-out: PERCENT INHIBITION @): 50%
inhibition at 0.25 µM (CONCENTRATION 0.25 micromolar, read-out: PERCENT INHIBITION @): 60%
inhibition at 0.32 µM (CONCENTRATION 0.32 micromolar, read-out: PERCENT INHIBITION @): 50%
inhibition at 0.45 µM (CONCENTRATION 0.45 micromolar, read-out: PERCENT INHIBITION @): 50%
SMILES: COc1cc(C(=O)NS(=O)(=O)c2ccccc2C)ccc1Cc1cn(C(c2ccccc2)c2ccccc2)c2ccc([N+](=O)[O-])cc12 [Example 36, N-{4-[(1-benzhydryl-5-nitro-1H-indol-3-yl)methyl]-3-methoxybenzoyl}-2-methylbenzenesulfonamide]

inhibition at 12 µM (CONCENTRATION 12 micromolar, read-out: PERCENT INHIBITION @): 50%
inhibition at 14 µM (CONCENTRATION 14 micromolar, read-out: PERCENT INHIBITION @): 50%
SMILES: COc1cc(C(=O)NS(=O)(=O)c2ccccc2C)ccc1Cc1cn(C(c2ccccc2)c2ccccc2)c2ccc(NC(=O)C3CCCC3)cc12 [Example 43, N-{1-benzhydryl-3-[2-methoxy-4-({[(2-methylphenyl)sulfonyl]amino}carbonyl)benzyl]-1H-indol-5-yl}cyclopentanecarboxamide]

inhibition at 160 µM (CONCENTRATION 160 micromolar, read-out: PERCENT INHIBITION @): 50%
inhibition at 180 µM (CONCENTRATION 180 micromolar, read-out: PERCENT INHIBITION @): 50%
SMILES: O=C(O)Cc1cn(CC2CC2)c2ccc(Br)cc12 [Example 77, 2-[5-bromo-1-(cyclopropylmethyl)-1H-indol-3-yl]acetic acid]

Continued, compound first:

SMILES: COc1cc(C(=O)NS(=O)(=O)c2c(C)noc2C)ccc1Cc1cn(C(c2ccccc2)c2ccccc2)c2ccc(NC(=O)OC3CCCC3)cc12 [Example 33, cyclopentyl N-{1-benzhydryl-3-[4-({[(3,5-dimethyl-4-isoxazolyl)sulfonyl]amino}carbonyl)-2-methoxybenzyl]-1H-indol-5-yl}carbamate]
inhibition at 4.4 µM (read-out: PERCENT INHIBITION @): 50%
inhibition at 4.9 µM (CONCENTRATION 4.9 micromolar, read-out: PERCENT INHIBITION @): 50%

SMILES: O=C(Nc1cccc(C(=O)O)c1)C(=O)c1cn(Cc2ccc(COc3cc(C(F)(F)F)cc(C(F)(F)F)c3)cc2)c2ccccc12 [Example 60, 3-({2-[1-(4-{[3,5-bis(trifluoromethyl)phenoxy]methyl}benzyl)-1H-indol-3yl]-2oxoacetyl}amino)benzoic acid]
inhibition at 12.5 µM (read-out: PERCENT INHIBITION @): 50%

SMILES: O=C(Nc1cccc(C(=O)O)c1)C(=O)c1cn(CCCOc2ccc(Cc3ccccc3)cc2)c2ccccc12 [Example 62, 3-[(2-{1-[3-(4-benzylphenoxy)propyl]-1H-indol-3-yl}-2-oxoacetyl)amino]benzoic acid]
inhibition at 7 µM (CONCENTRATION 7 micromolar, read-out: PERCENT INHIBITION @): 50%
inhibition at 12.5 µM (read-out: PERCENT INHIBITION @): 86%

SMILES: O=C(Nc1cccc(C(=O)O)c1)C(=O)c1cn(Cc2ccccc2S(=O)(=O)Cc2ccccc2)c2ccccc12 [Example 64, 3-[(2-{1-[2-(benzylsulfonyl)benzyl]-1H-indol-3-yl}-2-oxoacetyl)amino]benzoic acid]
inhibition at 32 µM (CONCENTRATION 32 micromolar, read-out: PERCENT INHIBITION @): 50%
inhibition at 37 µM (CONCENTRATION 37 micromolar, read-out: PERCENT INHIBITION @): 50%

SMILES: O=C(O)C(=O)c1cn(Cc2ccc(Cc3ccccc3)cc2)c2ccc(OCc3ccccc3)cc12 [Example 69, 2-[1-(4-benzylbenzyl)-5-(benzyloxy)-1H-indol-3-yl]-2-oxoacetic acid]
inhibition at 12.5 µM (read-out: PERCENT INHIBITION @): 50%

SMILES: O=C(O)C(=O)c1cn(Cc2ccc(C(F)(F)F)cc2C(F)(F)F)c2ccc(OCc3ccccc3)cc12 [Example 70, 2-{5-(benzyloxy)-1-[2,4-bis(trifluoromethyl)benzyl]-1H-indol3-yl}-2-oxoacetic acid]
PERCENT INHIBITION @ (CONCENTRATION 50 micromolar): 40%
inhibition at 50 µM (CONCENTRATION 50 micromolar, read-out: PERCENT INHIBITION @): 39%

SMILES: O=C(Nc1cccc(C(=O)O)c1)C(=O)c1cn(Cc2ccc(Cc3ccccc3)cc2)c2ccc(OCc3ccccc3)cc12 [Example 71, 3-({2-[1-(4-benzylbenzyl)-5-(benzyloxy)-1H-indol-3-yl]-2-oxoacetyl}amino)benzoic acid]
inhibition at 1.5 µM (CONCENTRATION 1.5 micromolar, read-out: PERCENT INHIBITION @): 50%
inhibition at 3.5 µM (CONCENTRATION 3.5 micromolar, read-out: PERCENT INHIBITION @): 50%
inhibition at 3.8 µM (CONCENTRATION 3.8 micromolar, read-out: PERCENT INHIBITION @): 50%
inhibition at 6 µM (read-out: PERCENT INHIBITION @): 69%

SMILES: O=C(Nc1cc(C(=O)O)cc(C(=O)O)c1)C(=O)c1cn(Cc2ccc(C(F)(F)F)cc2C(F)(F)F)c2ccc(OCc3ccccc3)cc12 [Example 72, 5-[(2-{5-(benzyloxy)-1-[2,4-bis(trifluoromethyl)benzyl]-1H-indol-3-yl}-2-oxoacetyl)amino]isophthalic acid]
inhibition at 12.5 µM (read-out: PERCENT INHIBITION @): 50%

Source: US6500853B1, “Inhibitors of phospholipase enzymes” (Genetics Institute, LLC, priority 1998, dated 2002)
